Assay results: paper PMC5443783, “Prostaglandin E2 glyceryl ester is an endogenous agonist of the nucleotide receptor P2Y6” (Scientific Reports, 2017)
Entries after “also recorded” stand apart in the source; their conditions may differ.

Assays:
P2Y6 [1] = target: T1, P2Y6 (Homo sapiens, UniProt Q15077); assay: ERK1/2 phosphorylation (AlphaScreen SureFire) in P2RY6-transfected HEK293 cells; assay type: cell-based; design: expressed in transfected cells; host or cells: HEK293; conditions: P2RY6-transfected HEK293 cells, Fig. 3b
T1 sequence (Q15077 whole entry, the tested form may be a part): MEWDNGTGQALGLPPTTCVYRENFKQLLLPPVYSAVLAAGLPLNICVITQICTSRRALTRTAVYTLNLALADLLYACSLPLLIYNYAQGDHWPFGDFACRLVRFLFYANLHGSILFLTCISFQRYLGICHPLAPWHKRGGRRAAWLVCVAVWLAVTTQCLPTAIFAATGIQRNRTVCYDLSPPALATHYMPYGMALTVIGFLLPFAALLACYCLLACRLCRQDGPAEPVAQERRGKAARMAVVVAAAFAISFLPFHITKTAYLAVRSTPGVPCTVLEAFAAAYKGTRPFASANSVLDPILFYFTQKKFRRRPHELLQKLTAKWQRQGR
Description: Cells were transferred to serum-free medium 2 h prior to assay. Ligands and controls (10 µl of 10× concentrates) were added to 90 µl medium and incubated for 5 min at 37 °C. The final concentration of DMSO was 0.2%. The reaction was stopped by aspiration of the medium and addition of 50 µl lysis buffer (PerkinElmer Life Sciences). To measure ERK1/2 phosphorylation, the AlphaScreen® SureFire ERK 1/2 assay kit (PerkinElmer Life Sciences) was used with the high sensitivity protocol. Phosphorylated ERK1/2 was measured in 384-well white OptiPlate microplates (PerkinElmer Life Sciences) with the Fusion AlphaScreen multilabel reader (PerkinElmer Life Sciences).

[2] = target: T2, human TSH receptor (TSHR) (Homo sapiens, UniProt P16473); assay: Cell surface expression of TSH receptor, cell surface ELISA; assay type: cell-based; conditions: HEK293 transfected with HA-tagged human TSHR, Fig. 5e
T2 construct: HA tag (N); expressed in transfected cells; host or cells: HEK293
T2 sequence (P16473 21-764): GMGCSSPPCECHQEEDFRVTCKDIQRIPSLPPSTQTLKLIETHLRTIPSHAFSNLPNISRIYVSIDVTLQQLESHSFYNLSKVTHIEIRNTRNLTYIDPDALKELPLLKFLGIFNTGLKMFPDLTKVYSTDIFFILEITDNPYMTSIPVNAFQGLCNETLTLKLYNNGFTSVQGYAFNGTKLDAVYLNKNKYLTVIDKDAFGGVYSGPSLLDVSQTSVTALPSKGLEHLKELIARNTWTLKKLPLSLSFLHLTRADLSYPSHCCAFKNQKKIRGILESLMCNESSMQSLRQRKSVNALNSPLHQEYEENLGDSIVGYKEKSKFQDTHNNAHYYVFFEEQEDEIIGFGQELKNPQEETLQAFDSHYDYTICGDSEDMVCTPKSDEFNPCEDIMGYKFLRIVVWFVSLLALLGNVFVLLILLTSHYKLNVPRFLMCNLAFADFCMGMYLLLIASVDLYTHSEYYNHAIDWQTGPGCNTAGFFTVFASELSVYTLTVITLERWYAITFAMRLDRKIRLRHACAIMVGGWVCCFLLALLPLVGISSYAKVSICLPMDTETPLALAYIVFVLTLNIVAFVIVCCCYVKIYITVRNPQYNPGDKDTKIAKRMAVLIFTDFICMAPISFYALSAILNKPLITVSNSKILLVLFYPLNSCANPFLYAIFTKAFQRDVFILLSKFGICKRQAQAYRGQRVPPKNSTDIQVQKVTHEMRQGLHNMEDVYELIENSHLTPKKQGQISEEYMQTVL
Description: To estimate cell surface expression of heterologously expressed receptors carrying an N-terminal HA tag, an indirect cellular ELISA was used[57]. To determine the endogenous cell surface expression of P2Y6, the same ELISA procedure was performed with minor modifications. Briefly, after 4% paraformaldehyde fixation and blocking with 10% FBS, cells were incubated with the primary anti-P2Y6 antibody (sc-15215; Santa Cruz Biotechnology, USA) in 1:1,000 dilution for 1 h. After washing with PBS, cells were incubated with peroxidase-conjugated secondary antibody anti-goat IgG (sc-2020, Santa Cruz Biotechnology, USA) in 1:5,000 dilutions.

P2Y6 [3] = target: T1, P2Y6; assay: IP3 assay in P2RY6-transfected HEK293 cells; assay type: cell-based; design: expressed in transfected cells; host or cells: HEK293; conditions: Fig. 3a, read-out: EC50, IP3 levels
Description: To measure intracellular IP3 the HitHunter® Inositol (1,4,5) Triphosphate Assay (DiscoveRx, USA) was used according to manufacturer′s protocol. HEK293 cells stably transfected with hP2RY6 were seeded in a 384-well Black microtiter plate (15,000 cells/well) (Greiner Bio One, Germany) and incubated with indicated concentrations of UDP and PGE2-G for 20 seconds. Reaction was stopped by adding 5 µl 0.2 N perchloric acid and measurement of IP3 was performed with the Fusion AlphaScreen multilabel reader (PerkinElmer Life Sciences) according to manufacturer′s protocol. To measure IP1, HEK293 cells expressing wildtype and mutant P2Y6 were seeded into 384-well plates (5,000 cells/well) 24 h prior assay. After aspiration of the medium, cells were incubated with indicated concentrations of agonists/antagonist for 1 h. IP1 measurements using the IP-one HTFR® assay kit (Cisbio assays, USA) were performed according to manufacturer′s protocol. The assays were performed with a final concentration of 1% DMSO.

P2Y1 = target: T3, P2Y1 (Homo sapiens, UniProt P47900); assay: Intracellular Ca2+ release in HEK293 cells transfected with P2RY1; assay type: cell-based; conditions: HEK293 transfected with P2RY1, Fig. 3f
T3 construct: expressed in transfected cells; host or cells: HEK293
T3 sequence (P47900 whole entry, species assumed): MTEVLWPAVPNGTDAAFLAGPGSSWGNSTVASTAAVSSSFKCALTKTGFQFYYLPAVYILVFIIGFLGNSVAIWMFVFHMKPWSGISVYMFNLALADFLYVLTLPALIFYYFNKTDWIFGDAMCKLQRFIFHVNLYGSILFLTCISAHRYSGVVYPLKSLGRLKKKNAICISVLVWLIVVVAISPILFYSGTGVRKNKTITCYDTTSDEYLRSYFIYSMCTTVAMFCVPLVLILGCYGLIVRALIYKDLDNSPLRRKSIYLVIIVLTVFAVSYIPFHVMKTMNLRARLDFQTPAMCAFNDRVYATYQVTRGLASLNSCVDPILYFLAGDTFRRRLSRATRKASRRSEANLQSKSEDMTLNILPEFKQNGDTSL
Description: (§1) For fluorometric measurements of intracellular Ca^2+ levels with the FlexStationII instrument (Molecular Devices), RAW264.7 and H1819 cells were seeded into 96-well plates (3.0 × 10^4 cells/well) 24 h prior to assay. Ca^2+ measurements with transiently transfected HEK293 cells were performed 48 h after transfection. Cells were loaded with 200 µl Calcium 5 reagent (Explorer Kit, Molecular Devices, USA) for 60 min at 37 °C, and the assay was performed as described. Agonists and inhibitors were solved in DMSO (100x) and diluted […] in 96-well compound plates containing HBSS. 50 µl of compound solution were added to the assay plate resulting in final concentration of 1% DMSO. Fold-response was calculated by RFUmax − RFUmin (ligand)/RFUmax − RFUmin (vehicle). EC50 values were calculated by using GraphPad Prism6 software (GraphPad, USA).

RAW264.7 cells = conditions: RAW264.7 and H1819 cell lines; read-out: EC50, Ca2+ response; cited from earlier work
[4] = target: T4, cannabinoid receptor 2 (Cnr2) (Homo sapiens, UniProt P34972); assay: Intracellular Ca2+ measurement in CNR2-transfected HEK293 cells; assay type: cell-based; conditions: 200 nM of 2-AG, Fig. 2c
T4 construct: expressed in transfected cells; host or cells: HEK293
T4 sequence (P34972 whole entry): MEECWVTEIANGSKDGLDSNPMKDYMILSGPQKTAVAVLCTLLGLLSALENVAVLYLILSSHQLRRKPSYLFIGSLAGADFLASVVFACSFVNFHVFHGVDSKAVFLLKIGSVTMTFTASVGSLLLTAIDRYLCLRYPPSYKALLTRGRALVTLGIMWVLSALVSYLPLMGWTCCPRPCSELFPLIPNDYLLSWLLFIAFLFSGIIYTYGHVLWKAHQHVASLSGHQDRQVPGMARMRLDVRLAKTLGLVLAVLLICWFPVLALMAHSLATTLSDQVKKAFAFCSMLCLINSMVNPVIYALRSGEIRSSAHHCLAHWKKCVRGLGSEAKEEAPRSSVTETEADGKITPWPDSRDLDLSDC
Description: RAW264.7 cells were grown in DMEM supplemented with 10% FBS, A7r5 (rat […]) cells in DMEM with 10% FBS, and A431 (human squamous carcinoma) cells in RPMI supplemented with 10% FBS. All cell lines were grown at 37 °C in a humidified 5% CO2 incubator. For functional assays, receptor constructs were heterologously expressed in human embryonic kidney (HEK293) cells upon transient or stable transfection. Cells were grown in DMEM/F12 supplemented with 10% FBS, 100 units/ml penicillin, and 100 µg/ml streptomycin. For the cAMP-inhibition assay, ERK1/2 phosphorylation assay, and Ca^2+ mobilization assay, cells were split into 96-well plates (2.0 × 10^4 cells/well) and transfected with 250 ng vector construct using MACSfectin™ (Miltenyi Biotec, Germany) according to manufacturer’s protocol. Empty vector (mock) served as the negative control. For siRNA experiments, cells were seeded in 6-well plates (4.0 × 10^5 and 6.0 × 10^5 cells/well for RAW264.7 and H1819, respectively). […]
For fluorometric measurements of intracellular Ca^2+ levels with the FlexStationII instrument (Molecular Devices), RAW264.7 and H1819 cells were seeded into 96-well plates (3.0 × 10^4 cells/well) 24 h prior to assay. […] Fold-response was calculated by RFUmax − RFUmin (ligand)/RFUmax − RFUmin (vehicle). EC50 values were calculated by using GraphPad Prism6 software (GraphPad, USA).

P2Y12 = target: T5, P2Y12 (Homo sapiens, UniProt Q9H244); assay: Intracellular Ca2+ release in HEK293 cells transfected with P2RY12; assay type: cell-based; conditions: HEK293 transfected with P2RY12, Fig. 3f
T5 construct: expressed in transfected cells; host or cells: HEK293
T5 sequence (Q9H244 whole entry, species assumed): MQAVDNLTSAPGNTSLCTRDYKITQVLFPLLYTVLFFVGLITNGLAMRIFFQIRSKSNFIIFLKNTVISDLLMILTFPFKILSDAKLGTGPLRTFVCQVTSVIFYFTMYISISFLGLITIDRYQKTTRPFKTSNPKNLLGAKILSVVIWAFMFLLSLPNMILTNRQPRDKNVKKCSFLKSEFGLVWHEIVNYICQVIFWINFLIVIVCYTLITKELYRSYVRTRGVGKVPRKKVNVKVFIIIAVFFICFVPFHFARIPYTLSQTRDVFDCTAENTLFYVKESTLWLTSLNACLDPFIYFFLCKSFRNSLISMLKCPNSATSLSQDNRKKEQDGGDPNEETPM
Description: as §1

[5] = tested on: prostanoid receptors EP1–4, DP, FP, TP, or IP; design: method as in PMID 18297109, PMID 14766978, PMID 14757851; conditions: cited from earlier work

Compound	ERK1/2 phosphorylation (P2Y6 [1])	effect on cell surface expression of the TSH receptor [2]	EC50 (P2Y6 [3]) [nM]	Ca2+ release (P2Y1)	EC50 (RAW264.7 cells) [nM]	effect on intracellular Ca2+ [4]	Ca2+ release (P2Y12)	activation of known prostanoid receptors [5]
O=c1ccn([C@@H]2O[C@H](COP(=O)(O)OP(=O)(O)O)[C@@H](O)[C@H]2O)c(=O)[nH]1 [UDP]	led to ERK1/2 phosphorylation; also recorded: induce ERK1/2 phosphorylation	no effect	2.7 ± 0.1					
Prostaglandin E2 glyceryl ester [PGE2-G]	led to ERK1/2 phosphorylation; also recorded: induce ERK1/2 phosphorylation	no effect		not and neither P2Y1 nor P2Y12 showed activity	~0.001	did not	not and neither P2Y1 nor P2Y12 showed activity	does not efficiently activate
